In patent US11311609B2, “Regulating chimeric antigen receptors” (DANA-FARBER CANCER INSTITUTE, INC., priority 2017, dated 2022):

Tests used:
[1] = tested on: SMART-CAR; assay: SMART-CAR expression in Jurkat T-cells by flow cytometry with HA-antibody; format: cell-based, human; conditions: 4 hour pretreatment 250 nM, wash, retreatment with 250 nM dFKBP7; 1:1 co-culture
Text: FIG. 27 is a histogram plot illustrating the ability to track SMART-CAR expression in Jurkat cells. SMART-CAR expressing Jurkat cells were stained with a HA-antibody and subsequently labelled with a secondary Alexa647 fluorescent antibody. Stained cells were subject to flow cytometry with excitation with a 647 nm laser and HA expression quantified via Alexa647 fluorescent signal (Example 24). The observed shift in signal illustrates the ability to track SMART-CAR expression in Jurkat T cells.
FIG. 31 are line plots tracking CD19 positive tumor cells and SMART-CAR expression levels as described in the experimental setup in FIG. 20 and described in Example 26. After the 4 hour pretreatment with 250 nM of dFKBP7, SMART-CAR expressing Jurkats were mixed in a 1:1 ratio with CD19 positive tumor cells (Daudi: top and Raji: bottom) in the presence (green line) or absence (blue line) of 250 nM of dFKBP7. […]
FIG. 27 illustrates the use of flow cytometry to monitor SMART-CAR protein expression in Jurkat T-cells. […] This allows for quantitative measurements of SMART-CAR protein expression levels.
SMART-CAR expressing Jurkat cells were pretreated with dFKBP7 at 250 nM for 4 hours to allow for maximal degradation of SMART-CAR. […] The two experimental arms were then mixed at a 1:1 ratio with CD19 positive tumor cells and CD19-positive tumor cells monitored by flow cytometry. […]

[2] = target: T1, FKBP12WT (Homo sapiens, UniProt P62942); assay: Immunoblot of wild type FKBP12 degradation in 293FT cells (CRBN-WT or CRBN-/-); format: cell-based; conditions: 4 hours
T1 construct: HA; expressed in transfected cells; host or cells: 293FT cells (CRBN-WT or CRBN-/-)
Protocol: FIG. 6 is an immunoblot of cells treated with bi-functional molecules described in the present invention.
The dTAG is predicated on the selectivity of FKBP* specific ligands over endogenous, wild type FKBP. […] An immunoblot of cells treated with bi-functional molecules described in the present invention was performed. 293FT cells (CRBN-WT or CRBN−/−) expressing either HA-tagged FKBP12WT or FKBP* were treated with indicated concentrations of dFKBP7 for 4 hours.
Isogenic 293FT cells (CRBN-WT or CRBN−/−) were engineered to express either FKBP12WT or FKBP*. Cells were treated with 100 nM of either dFKBP7 or dFKBP13 for 4 hours before lysates were prepared for western immunoblot analysis.

[3] = target: T2, FKBP* (Homo sapiens, UniProt P62942, F37V); assay: Immunoblot of FKBP* degradation in 293FT cells (CRBN-WT or CRBN-/-); format: cell-based; conditions: 4 hours
T2 construct: HA; expressed in transfected cells; host or cells: 293FT cells (CRBN-WT or CRBN-/-)
Protocol: FIG. 6 is an immunoblot of cells treated with bi-functional molecules described in the present invention. As described in Example 3, 293FT cells (CRBN-WT or CRBN−/−) expressing either HA-tagged FKBP12WT or FKBP* (also referred to as dFKBP12* herein) were treated with indicated concentrations of dFKBP7 for 4 hours.
FIG. 8 is an immunoblot of cells treated with heterobifunctional compounds described in the present invention. Isogenic 293FT cells (CRBN-WT or CRBN−/−) expressing either FKBP12WT or FKBP* were treated with 100 nM of either dFKBP7 or dFKBP13 for 4 hours (Example 5).
FIG. 9 is an immunoblot of cells treated with heterobifunctional compounds described in the present invention. Isogenic 293FT cells (CRBN-WT or CRBN−/−) expressing HA-tagged FKBP* were treated with the indicated dose of dFKBP13 for 4 hours (Example 6).
FIG. 11 is an immunoblot of cells treated with heterobifunctional compounds described in the present invention. 293FT cells (CRBN-WT) expressing FKBP* were pretreated with 1 uM Carfilzomib (proteasome inhibitor), 0.5 uM MLN4924 (neddylation inhibitor), and 10 uM Lenalidomide (CRBN binding ligand) for two hours prior to a 4 hour treatment with dFKBP13 (Example 8). Degradation of HA-tagged FKBP* by dFKBP13 was rescued by the proteasome inhibitor Carfilzomib, establishing a requirement for proteasome function.
The dTAG is predicated on the selectivity of FKBP* specific ligands over endogenous, wild type FKBP. In 293T cells expressing wild type FKBP12 or FKBP*, dFKBP7 induces targeted degradation only in FKBP* expressing cells. An immunoblot of cells treated with bi-functional molecules described in the present invention was performed. 293FT cells (CRBN-WT or CRBN−/−) expressing either HA-tagged FKBP12WT or FKBP* were treated with indicated concentrations of dFKBP7 for 4 hours.
In 293T cells expressing wild type FKBP12 or FKBP*, treatment with dFKBP7 and dFKBP13 induces targeted degradation only in FKBP* expressing cells. Isogenic 293FT cells (CRBN-WT or CRBN−/−) were engineered to express either FKBP12WT or FKBP*. Cells were treated with 100 nM of either dFKBP7 or dFKBP13 for 4 hours before lysates were prepared for western immunoblot analysis.
In an effort to define the optimal concentration of dFKB13 heterobifunctional compounds to induce degradation of FKBP*, degradation was measured upon treatment with increasing concentrations of dFKBP13. Isogenic 293FT cells (CRBN-WT or CRBN−/−) were engineered to expressed HA-tagged FKBP*. Cells were treated with the indicated dose of dFKBP13 for 4 hours before lysates were prepared for western immunoblot analysis.
293FT cells (CRBN-WT) were engineered to express FKBP*. Cells were pretreated with 1 uM Carfilzomib (proteasome inhibitor), 0.5 uM MLN4924 (neddylation inhibitor), and 10 uM Lenalidomide (CRBN binding ligand) for two hours prior to a 4-hour treatment with dFKBP13. Lysates were prepared and western immunoblot analysis performed. Degradation of HA-tagged FKBP* by dFKBP13 was rescued by the proteasome inhibitor Carfilzomib, establishing a requirement for proteasome function.

[4] = 293FT cells CRBN-WT or CRBN-/-, indicated concentrations
[5] = isogenic 293FT cells CRBN-WT or CRBN-/-, 100 nM

T1 sequence (P62942 whole entry): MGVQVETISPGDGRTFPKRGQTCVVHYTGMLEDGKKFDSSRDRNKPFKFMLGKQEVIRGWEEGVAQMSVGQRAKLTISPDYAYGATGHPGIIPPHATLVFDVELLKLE
T2 sequence (P62942 whole entry F37V): as the sequence (P62942 whole entry) above, with F37V counted along it

`CC[C@H](C(=O)N1CCCC[C@H]1C(=O)O[C@H](CCc1ccc(OC)c(OC)c1)c1cccc(OCC(=O)NCCCOCCOCCOCCCNC(=O)COc2cccc3c2C(=O)N(C2CCC(=O)NC2=O)C3=O)c1)c1cc(OC)c(OC)c(OC)c1` (some centres unmarked) [dFKBP7] was tested, and the SMART-CAR expression [1] was “minimal”, the “Degradation of HA-tagged FKBP12WT (immunoblot)” value [2, 4] was “not FKBPWT” and the “Degradation of FKBP12WT or endogenous FKBP12 (immunoblot)” value [2, 5] was “not FKBP12WT or endogenous FKBP12”. For the same molecule, the “Degradation of HA-tagged FKBP* (immunoblot)” value [3, 4] was “CRBN-dependent degradation of FKBP*” and the “Degradation of FKBP* (immunoblot)” value [3, 5] was “CRBN-dependent degradation of FKBP*”.
